Test results taken from publication PMC6422671 (British Journal of Clinical Pharmacology, 2019).

Assay: Clinical laboratory findings: haematology; data mean (standard deviation)
Assay type: in vivo, healthy men
Source text: Data are mean (standard deviation).

## C[C@@H](N)c1cc(Cl)ccc1Cn1c(=S)[nH]c(=O)c2[nH]ccc21 [AZD4831]
45 mg fed, 24 h
  Basophils: 0.03 (0.01) 10^9 L^–1
  Eosinophils: 0.19 (0.10) 10^9 L^–1
  Erythrocyte MCH: 30.2 (2.0) pg
  Erythrocyte MCH concentration: 343 (14) g L^–1
  Erythrocyte MCV: 88.0 (5.6) fL
  Erythrocytes: 4.74 (0.15) 10^12 L^–1
  Haematocrit: 0.42 (0.03) ratio
  Haemoglobin: 143 (9) g L^–1
  Leukocytes: 5.51 (0.85) 10^9 L^–1
  Lymphocytes: 1.76 (0.61) 10^9 L^–1
  Monocytes: 0.34 (0.16) 10^9 L^–1
  Neutrophils: 3.11 (0.79) 10^9 L^–1
  Platelets: 227 (50) 10^9 L^–1
  Reticulocytes: 77.4 (5.4) 10^9 L^–1
45 mg fed, 48 h
  Basophils: 0.03 (0.02) 10^9 L^–1
  Eosinophils: 0.20 (0.15) 10^9 L^–1
  Erythrocyte MCH: 30.2 (1.7) pg
  Erythrocyte MCH concentration: 343 (8) g L^–1
  Erythrocyte MCV: 88.2 (5.8) fL
  Erythrocytes: 4.89 (0.11) 10^12 L^–1
  Haematocrit: 0.43 (0.03) ratio
  Haemoglobin: 148 (9) g L^–1
  Leukocytes: 5.93 (1.07) 10^9 L^–1
  Lymphocytes: 1.85 (0.77) 10^9 L^–1
  Monocytes: 0.40 (0.16) 10^9 L^–1
  Neutrophils: 3.35 (1.20) 10^9 L^–1
  Platelets: 233 (51) 10^9 L^–1
  Reticulocytes: 84.5 (7.9) 10^9 L^–1
45 mg fed, follow up
  Basophils: 0.04 (0.01) 10^9 L^–1
  Eosinophils: 0.18 (0.12) 10^9 L^–1
  Erythrocyte MCH: 30.7 (1.0) pg
  Erythrocyte MCH concentration: 347 (11) g L^–1
  Erythrocyte MCV: 88.3 (5.1) fL
  Erythrocytes: 4.72 (0.16) 10^12 L^–1
  Haematocrit: 0.42 (0.04) ratio
  Haemoglobin: 145 (9) g L^–1
  Leukocytes: 6.37 (1.60) 10^9 L^–1
  Lymphocytes: 1.79 (0.37) 10^9 L^–1
  Monocytes: 0.39 (0.12) 10^9 L^–1
  Neutrophils: 3.85 (1.22) 10^9 L^–1
  Platelets: 250 (62) 10^9 L^–1
  Reticulocytes: 82.9 (10.8) 10^9 L^–1
135 mg fasted, 24 h
  Basophils: 0.02 (0.01) 10^9 L^–1
  Eosinophils: 0.11 (0.07) 10^9 L^–1
  Erythrocyte MCH: 31.0 (0.4) pg
  Erythrocyte MCH concentration: 354 (5) g L^–1
  Erythrocyte MCV: 87.5 (1.9) fL
  Erythrocytes: 4.69 (0.26) 10^12 L^–1
  Haematocrit: 0.41 (0.02) ratio
  Haemoglobin: 145 (8) g L^–1
  Leukocytes: 5.11 (1.13) 10^9 L^–1
  Lymphocytes: 1.52 (0.40) 10^9 L^–1
  Monocytes: 0.35 (0.12) 10^9 L^–1
  Neutrophils: 3.00 (0.79) 10^9 L^–1
  Platelets: 200 (25) 10^9 L^–1
  Reticulocytes: 72.4 (19.9) 10^9 L^–1
135 mg fasted, 48 h
  Basophils: 0.03 (0.01) 10^9 L^–1
  Eosinophils: 0.12 (0.07) 10^9 L^–1
  Erythrocyte MCH: 30.9 (0.4) pg
  Erythrocyte MCH concentration: 353 (7) g L^–1
  Erythrocyte MCV: 87.4 (1.6) fL
  Erythrocytes: 4.68 (0.30) 10^12 L^–1
  Haematocrit: 0.41 (0.03) ratio
  Haemoglobin: 144 (9) g L^–1
  Leukocytes: 5.28 (1.23) 10^9 L^–1
  Lymphocytes: 1.66 (0.47) 10^9 L^–1
  Monocytes: 0.37 (0.11) 10^9 L^–1
  Neutrophils: 3.00 (0.83) 10^9 L^–1
  Platelets: 202 (29) 10^9 L^–1
  Reticulocytes: 70.1 (15.1) 10^9 L^–1
135 mg fasted, follow up
  Basophils: 0.03 (0.01) 10^9 L^–1
  Eosinophils: 0.14 (0.09) 10^9 L^–1
  Erythrocyte MCH: 30.8 (0.5) pg
  Erythrocyte MCH concentration: 350 (11) g L^–1
  Erythrocyte MCV: 88.2 (1.7) fL
  Erythrocytes: 4.62 (0.25) 10^12 L^–1
  Haematocrit: 0.41 (0.02) ratio
  Haemoglobin: 143 (9) g L^–1
  Leukocytes: 6.80 (3.32) 10^9 L^–1
  Lymphocytes: 1.51 (0.26) 10^9 L^–1
  Monocytes: 0.48 (0.32) 10^9 L^–1
  Neutrophils: 4.46 (2.99) 10^9 L^–1
  Platelets: 218 (24) 10^9 L^–1
  Reticulocytes: 82.8 (19.3) 10^9 L^–1
405 mg fasted, 24 h
  Basophils: 0.04 (0.01) 10^9 L^–1
  Eosinophils: 0.18 (0.15) 10^9 L^–1
  Erythrocyte MCH: 30.8 (1.5) pg
  Erythrocyte MCH concentration: 345 (8) g L^–1
  Erythrocyte MCV: 89.4 (3.8) fL
  Erythrocytes: 4.81 (0.31) 10^12 L^–1
  Haematocrit: 0.43 (0.01) ratio
  Haemoglobin: 148 (6) g L^–1
  Leukocytes: 5.53 (1.12) 10^9 L^–1
  Lymphocytes: 1.40 (0.19) 10^9 L^–1
  Monocytes: 0.34 (0.09) 10^9 L^–1
  Neutrophils: 3.47 (0.79) 10^9 L^–1
  Platelets: 190 (23) 10^9 L^–1
  Reticulocytes: 68.5 (16.4) 10^9 L^–1
405 mg fasted, 48 h
  Basophils: 0.03 (0.01) 10^9 L^–1
  Eosinophils: 0.24 (0.26) 10^9 L^–1
  Erythrocyte MCH: 31.0 (1.6) pg
  Erythrocyte MCH concentration: 347 (7) g L^–1
  Erythrocyte MCV: 89.4 (3.7) fL
  Erythrocytes: 4.67 (0.22) 10^12 L^–1
  Haematocrit: 0.42 (0.01) ratio
  Haemoglobin: 145 (5) g L^–1
  Leukocytes: 5.53 (1.14) 10^9 L^–1
  Lymphocytes: 1.51 (0.30) 10^9 L^–1
  Monocytes: 0.40 (0.14) 10^9 L^–1
  Neutrophils: 3.22 (0.62) 10^9 L^–1
  Platelets: 187 (20) 10^9 L^–1
  Reticulocytes: 66.3 (20.0) 10^9 L^–1
405 mg fasted, follow up
  Basophils: 0.04 (0.01) 10^9 L^–1
  Eosinophils: 0.27 (0.27) 10^9 L^–1
  Erythrocyte MCH: 31.0 (1.1) pg
  Erythrocyte MCH concentration: 345 (5) g L^–1
  Erythrocyte MCV: 89.8 (3.6) fL
  Erythrocytes: 4.83 (0.35) 10^12 L^–1
  Haematocrit: 0.43 (0.02) ratio
  Haemoglobin: 149 (8) g L^–1
  Leukocytes: 5.84 (1.41) 10^9 L^–1
  Lymphocytes: 1.43 (0.19) 10^9 L^–1
  Monocytes: 0.40 (0.08) 10^9 L^–1
  Neutrophils: 3.54 (1.02) 10^9 L^–1
  Platelets: 205 (21) 10^9 L^–1
  Reticulocytes: 78.6 (19.4) 10^9 L^–1
